Earlier results, collected in publication PMC8583936, “Machine Learning Assisted Approach for Finding Novel High Activity Agonists of Human Ectopic Olfactory Receptors” (International Journal of Molecular Sciences, 2021).
Like-named read-outs stand apart in the source and are kept apart here.

Legend:
OR2W1 = target: T1, OR2W1 (Homo sapiens, UniProt Q9Y3N9); settings: cited from earlier work
T1 sequence (Q9Y3N9 1-320): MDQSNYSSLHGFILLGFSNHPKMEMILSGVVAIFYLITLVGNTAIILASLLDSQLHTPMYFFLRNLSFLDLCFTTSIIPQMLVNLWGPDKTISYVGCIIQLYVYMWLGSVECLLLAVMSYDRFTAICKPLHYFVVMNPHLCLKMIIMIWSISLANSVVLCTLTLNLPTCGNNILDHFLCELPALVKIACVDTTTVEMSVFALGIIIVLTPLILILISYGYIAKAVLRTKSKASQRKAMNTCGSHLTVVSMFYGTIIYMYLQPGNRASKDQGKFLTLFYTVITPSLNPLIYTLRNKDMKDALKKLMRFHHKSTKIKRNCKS

OR1A1 = target: T2, OR1A1 (Homo sapiens, UniProt Q9P1Q5); settings: cited from earlier work
T2 sequence (Q9P1Q5 1-309): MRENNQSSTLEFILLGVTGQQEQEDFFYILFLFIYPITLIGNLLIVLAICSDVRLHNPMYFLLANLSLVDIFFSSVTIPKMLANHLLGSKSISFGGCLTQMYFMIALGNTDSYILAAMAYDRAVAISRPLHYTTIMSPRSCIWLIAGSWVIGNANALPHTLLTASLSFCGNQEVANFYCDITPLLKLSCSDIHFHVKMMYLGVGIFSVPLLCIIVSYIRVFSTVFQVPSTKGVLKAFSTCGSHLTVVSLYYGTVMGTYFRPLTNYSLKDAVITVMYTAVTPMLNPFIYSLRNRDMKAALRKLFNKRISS

[1] = Table S2, ref Supplement references [2]-[12] as printed after each odorant name
[2] = Table S1, ref Supplement references [1]-[9] as printed after each odorant name

SMILES | Class (agonist / non-agonist / antagonist / conflicting info.) for OR2W1 (OR2W1; [1]) | Class (agonist / non-agonist / conflicting info.) for OR1A1 (OR1A1; [2]) | Class (agonist / non-agonist / antagonist / conflicting info.) for OR2W1 (OR2W1) | Class (agonist / non-agonist / conflicting info.) for OR1A1 (OR1A1)
C=CC(O)CCCCC (racemic) [(R/S)-octen-3-ol] | Agonist | Agonist |  | 
CCCCC1CCC(=O)O1 (racemic) [(R/S)-γ-Octalactone] | Agonist | Non-agonist |  | 
CCC(C(=O)O)c1ccccc1 (single isomer, unassigned; (+)) [(+)-2-Phenylbutyric acid] | Non-agonist | Non-agonist |  | 
CC1CC[C@H](C(C)C)[C@@H](O)C1 (single isomer, unassigned; (+)) [(+)-Menthol] | Conflicting info. | Non-agonist |  | 
CCC(C(=O)O)c1ccccc1 (single isomer, unassigned; (-)) [(-)-2-Phenylbutyric acid] | Non-agonist | Non-agonist |  | 
C=C(C)C1CC=C(C)C(=O)C1 (single isomer, unassigned; (-)) [(-)-Carvone] | Agonist | Agonist |  | 
CC1=CCC2CC1C2(C)C (single isomer, unassigned; (-)) [(-)-alpha-Pinene] | Non-agonist | Non-agonist |  | 
C=C1CCC2CC1C2(C)C (single isomer, unassigned; (-)) [(-)-beta-Pinene] | Non-agonist | Non-agonist |  | 
CCCCCCCC(OC)OC [1,1-dimethoxy-octane] | Agonist | Non-agonist |  | 
CC(S)CCS (stereo not shown) [1,3-butane dithiol] | Non-agonist | Non-agonist |  | 
CC12CCC(CC1)C(C)(C)O2 [1,8-cineole] | Non-agonist | Non-agonist |  | 
CCCCO [1-butanol] | Non-agonist | Non-agonist |  | 
CCCCCCCCCCO [1-decanol] | Agonist | Agonist |  | 
C=CC(=O)CCCCC [1-octen-3-one] | Non-agonist | Conflicting info. |  | 
CC1=CCC(C(C)(C)S)CC1 (stereo not shown) [1-p-Menthene-8-thiol] | Non-agonist | Non-agonist |  | 
CCCO [1-propanol] | Non-agonist | Non-agonist |  | 
CCCCCCCCCCCO [1-undecanol] | Non-agonist | Non-agonist |  | 
CC(=O)c1ccccc1N [2'-aminoacetophenone] |  |  | Non-agonist | Non-agonist
CCc1ncc(C)nc1CC [2,3-dietyl-5-methylpyrazine] | Non-agonist | Non-agonist |  | 
CCCC(=O)C(C)=O [2,3-hexanedione] | Agonist | Non-agonist |  | 
CCC(=O)C(C)=O [2,3-pentanedione] |  |  | Non-agonist | Non-agonist
CC1=NC(C)SC1C (stereo not shown) [2,4,5-trimethyl-2,5-dihydro-1,3-thiazole] | Antagonist | Non-agonist |  | 

SMILES | Class (agonist / non-agonist / antagonist / conflicting info.) for OR2W1 (OR2W1; [1]) | Class (agonist / non-agonist / conflicting info.) for OR1A1 (OR1A1; [2]) | Class (agonist / non-agonist / antagonist / conflicting info.) for OR2W1 (OR2W1) | Class (agonist / non-agonist / conflicting info.) for OR1A1 (OR1A1)
Cc1ccc(O)c(C)c1 [2,4-dimethylphenol] |  |  | Non-agonist | Non-agonist
CCCC/C=C\C=C\C=O [2,4-nonadienal, (2e,4z)-] | Non-agonist | Non-agonist |  | 
COc1cccc(OC)c1O [2,6-dimethoxyphenol] | Non-agonist | Non-agonist |  | 
Cc1cccc(C)c1O [2,6-dimethylphenol] |  |  | Non-agonist | Non-agonist
CC(=O)C1=NCCS1 [2-Acetyl-2-thiazoline] | Non-agonist | Non-agonist |  | 
CC(=O)c1ccco1 [2-Furyl methyl ketone] | Non-agonist | Non-agonist |  | 
CCc1ccc(O)c(OC)c1 [2-Methoxy-4-ethylphenol] | Non-agonist | Non-agonist |  | 
COc1ccc(C)cc1O [2-Methoxy-5-methylphenol] | Non-agonist | Non-agonist |  | 
Cc1occc1S [2-Methyl-3-furanthiol] | Non-agonist | Non-agonist |  | 
CCC(S)C(C)CO (stereo not shown) [2-Methyl-3-sulfanylpentan-1-ol] | Non-agonist | Non-agonist |  | 
CCC(C)COC(C)=O (stereo not shown) [2-Methylbutyl acetate] | Non-agonist | Non-agonist |  | 
O=C(O)Cc1ccccc1 [2-Phenylacetic acid] |  |  | Non-agonist | Non-agonist
CC(=O)OCCc1ccccc1 [2-Phenylethyl acetate] | Agonist | Agonist |  | 
CCC(=O)C(C)S (stereo not shown) [2-Sulfanylpentan-3-one] | Non-agonist | Non-agonist |  | 
CC(=O)c1cnccn1 [2-acetylpyrazine] | Non-agonist | Non-agonist |  | 
CCC(C)=O [2-butanone] |  |  | Non-agonist | Non-agonist
O=C1Cc2ccccc2O1 [2-coumaranone] | Non-agonist | Non-agonist |  | 
CCCCCCCCCC(=O)O [Decanoic acid] | Agonist |  |  | 
CCCCCCCS [Heptane-1-thiol] | Agonist |  |  | 
CCCCCCS [Hexane-1-thiol] |  |  | Agonist | 
CCCCCS [Pentane-1-thiol] | Agonist |  |  | 
